{
  "source": "patent US20060263403A1",
  "about": "“Compositions and methods for controlling insects involving the tyramine receptor” (priority 2003, published 2006)",
  "key": {"[1]": {"target": "T1, Drosophila melanogaster tyramine receptor (TyrR) (Drosophila melanogaster, UniProt P22270, C261Y)", "T1 construct": "The open reading frame encodes a protein of 601 amino acids; expressed in transfected cells", "T1 sequence (P22270 27-601 C261Y)": "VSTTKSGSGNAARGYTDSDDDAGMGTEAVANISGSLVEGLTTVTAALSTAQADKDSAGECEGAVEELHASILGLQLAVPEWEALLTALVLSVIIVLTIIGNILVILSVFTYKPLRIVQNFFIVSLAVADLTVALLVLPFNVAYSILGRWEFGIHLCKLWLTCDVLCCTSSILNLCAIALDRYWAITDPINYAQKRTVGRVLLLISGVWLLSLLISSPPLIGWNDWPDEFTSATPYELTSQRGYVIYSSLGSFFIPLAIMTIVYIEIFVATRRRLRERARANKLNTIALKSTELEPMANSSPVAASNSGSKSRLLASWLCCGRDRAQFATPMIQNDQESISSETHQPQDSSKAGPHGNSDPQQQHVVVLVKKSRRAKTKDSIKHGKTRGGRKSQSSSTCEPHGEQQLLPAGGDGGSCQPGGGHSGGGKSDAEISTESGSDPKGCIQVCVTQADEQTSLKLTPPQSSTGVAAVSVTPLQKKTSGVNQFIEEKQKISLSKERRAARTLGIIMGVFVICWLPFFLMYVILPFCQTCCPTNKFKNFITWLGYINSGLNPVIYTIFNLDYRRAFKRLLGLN", "assay": "biochemical", "format": "binding", "protocol": "All steps are performed at 4° C. or on ice. Cells grown in Drosophila media are harvested in the same media by scraping from the dishes and then rinsing dishes with PBS. The cells are centrifuged at 1000 g for 3 min, washed once with PBS and centrifuged again as previously described. The cells are suspended in ice cold hypotonic buffer (10 mM Tris-Cl, pH 7.4), incubated on ice for 10 min, and lysed using a glass dounce homogenizer and tight glass pestle (Kontes Glass Co., Vineland, N.J.) with 10 strokes. Nuclei are pelleted by centrifugation at 600 g for 5 min. The supernatant is decanted and centrifuged at 30,000 g for 30 min to pellet a crude membrane fraction. The pellet is suspended in binding buffer (50 mM Tris-Cl, 5 mM MgCl2, pH 7.4). Protein concentration is determined by the Bradford Assay (Bio-Rad Laboratories, Hercules, Calif.). Membranes are frozen on dry ice then stored at −75° C. in aliquots.\nFor the receptor binding assay, radioligand binding is performed in 500 μl binding buffer containing 10-50 μg membrane protein and 4 nM ^3H-tyramine. The binding reaction is incubated at 23° C. in the presence and absence of 10 μM unlabeled tyramine. Reactions are terminated after 60 min by addition of 3 ml ice cold binding buffer and filtered over GF/C filters that has been soaked for 30 min in 0.3% polyethylenimine. Filters are rinsed one additional time with 3 ml binding buffer. […] The binding activity of tyramine receptor is also studied in the presence and absence of five plant essential oils, shown in FIG. 1. Binding data is analyzed by Scatchard plots using the software GraphPad Prism (San Diego, Calif.). All binding analyses are performed 3 times with duplicate samples in each assay.\nThe binding activity of ^3H-tyramine to membranes expressing the tyramine receptor is performed in the presence and absence of five plant essential oils. These chemicals are selected based on their insecticidal activity and the absence or presence and location of the hydroxyl group within the molecule. […] The specific activity is calculated as the difference between counts in the presence and absence of test chemical."}, "[2]": {"target": "T1, Drosophila melanogaster tyramine receptor (TyrR)", "assay": "Intracellular calcium assay (Fura-2 AM) in S2 cells stably expressing pAC-TyrR", "format": "cell-based", "details": "for change in [Ca2+]i in response to plant essential oil: 25 μM, compared to EtOH treatment", "protocol": "(§1) Cells are washed once with insect saline buffer. Cells are collected by scraping and suspended at 1×10^6 cells/ml in insect saline buffer with 5 μM Fura-2 AM. Cells are incubated at 23° C. for 1 hr in the dark, centrifuged, suspended in 1 ml insect saline buffer, and used immediately for calcium measurements. […] This assay is performed four separate times. Data are normalized by dividing each value by the background fluorescence at the beginning of the assay before adding test ligand."}, "[3]": {"target": "T1, Drosophila melanogaster tyramine receptor (TyrR)", "assay": "cell-based", "format": "cell-based", "details": "for decrease in cAMP production: 25 μM, vs ethanol-treated cells 0.9056±0.078 pmol cAMP", "protocol": "(§2) Twenty four hours before cell treatment, 300,000 cells from clone#2 and control cells are plated in 1 ml media with 25 μg blasticidin/ml into 12 well dishes (4.5 cm^2). For cell treatment, the media is aspirated and 1 ml PBS with 300 μM IBMX (3-isobutyl-1-methylxanthine) and the test reagent is added. […] After 10 min incubation, the PBS is aspirated and cells are incubated with 70% ethanol for 12 hours at −20° C. The cellular debris is centrifuged, and then the supernatant is removed and lyophilized to dryness. The amount of cAMP in the extract is determined by using a cAMP binding protein from the ^3H-cAMP Biotrak Assay System (Amersham Biosciences, Piscataway, N.J.) as per the manufacturer's instructions. Cell treatment is performed 3 times with duplicates at each concentration. To test the effects of calcium chelation on cAMP levels, the cells are incubated with 20 μM BAPTA/AM for 10 min before the addition of TA."}, "[4]": {"tested_on": "wild type Drosophila melanogaster", "assay": "Topical toxicity bioassay against wild type Drosophila melanogaster fly", "format": "in vivo", "details": "for Wild type-calculated LD50 values: topical application, probit analysis; for % Mortality at LD50 of wild type Drosophila melanogaster strain: Wild type: topical dose equal to wild type LD50, 24 h after treatment", "protocol": "(§3) Quantitative Structure Activity Relationships (QSARs) for five monoterpenoid plant essential oils is determined against wild type and tyramine receptor mutant (TyrR^neo30) Drosophila melanogaster strains. […] In addition, monocyclic-unsaturated alcohol (a-terpenoil), and a monocylic di-unsaturated ketone (L-carvone) are also tested. […] Acetonic solutions of plant essential oils are prepared and different concentrations of each, that gave from 10%-100% mortality, are applied by topical application. Three replicates, with 5 flies per replicate, are used for each concentration. Controls treated with the same volume (0.5 μl/fly) of acetone. […] To determine whether the tyramine receptor is involved in the toxicity of tested plant essential oils, tyramine receptor mutant (TyrR^neo30) Drosophila melanogaster strain is topically treated with a dose equivalent to the determined LD50 for wild type strain. The mortality is calculated 24 hrs after treatment. Three replicates and 5 insects per replicate are used for the bioassay of each chemical. This bioassay is repeated five times."}, "[5]": {"tested_on": "tyramine receptor mutant (TyrR^neo30) Drosophila melanogaster", "format": "in vivo", "details": "for toxicity against TyrR^neo30 strain compared with wild type: topical application", "protocol": "as §3"}, "[6]": {"tested_on": "S2 cells transfected with plasmid lacking TyrR", "assay": "cAMP assay in control S2 cells transfected with plasmid lacking TyrR", "format": "cell-based, Drosophila melanogaster", "details": "TA up to 100 μM, compared to non-transfected cells", "protocol": "as §2"}, "[7]": {"tested_on": "S2 cells transfected with pAC lacking an insert", "assay": "Intracellular calcium assay in S2 cells transfected with pAC lacking an insert", "format": "cell-based, Drosophila melanogaster", "details": "10 μM TA, compared to untransfected S2 cells", "protocol": "as §1"}, "[8]": {"target": "T1, Drosophila melanogaster tyramine receptor (TyrR)", "details": "saturation binding, 0.1-30 nM 3H-tyramine, membranes of clone#2 S2 cells; read-out: Kd for specific binding"}},
  "note": "Like-named read-outs stand apart in the source and are kept apart here.",
  "data": [
    {"compound": "NCC(O)c1ccc(O)cc1", "note": "(racemic) [Octopamine (OA), DL-octopamine]", "values": [
      {"measurement": "Ki", "setting": "[1]; competitive binding vs 4 nM 3H-tyramine, membranes from Schneider Drosophila cells expressing TyrR, mean and standard deviation, read-out: Ki", "value": 28.7, "unit": "µM"}
    ]},
    {"compound": "CC(=O)OCOC(=O)CN(CC(=O)OCOC(C)=O)c1ccccc1OCCOc1ccccc1N(CC(=O)OCOC(C)=O)CC(=O)OCOC(C)=O", "note": "[BAPTA/AM]", "values": [
      {"measurement": "effect on TA-induced increase in free [Ca2+]i", "setting": "[2]; 20 μM BAPTA/AM, 1 μM TA", "value": "inhibit the increase in free [Ca^2+]i"}
    ]},
    {"compound": "CN(C)CCCN1c2ccccc2Sc2ccc(Cl)cc21", "note": "[Chlorpromazine]", "values": [
      {"measurement": "Ki", "setting": "[1]", "value": "0.193 ± 0.05", "unit": "µM"}
    ]},
    {"compound": "NCCc1ccc(O)c(O)c1", "note": "[Dopamine (DA), Dopamine]", "values": [
      {"measurement": "Ki", "setting": "[1]", "value": "57.5 ± 3.91", "unit": "µM"}
    ]},
    {"compound": "NCCc1c[nH]cn1", "note": "[Histamine (His), Histamine]", "values": [
      {"measurement": "Ki", "setting": "[1]", "value": "193 ± 16.8", "unit": "µM"}
    ]},
    {"compound": "C=C(C)[C@@H]1CC=C(C)C(=O)C1", "note": "[L-carvone, p-mentha-6,8-dien-2-one]", "values": [
      {"measurement": "decrease in cAMP production", "setting": "[3]; 300 μM IBMX", "value": 24, "unit": "%"},
      {"measurement": "change in [Ca2+]i in response to plant essential oil", "setting": "[2]", "value": "remarkable increase in [Ca^2+]i"},
      {"measurement": "Wild type-calculated LD50 values", "setting": "[4]", "value": 2.3, "unit": "μg/fly"},
      {"measurement": "% Mortality at LD50 of wild type Drosophila melanogaster strain: Wild type", "setting": "[4]", "value": 37.3, "unit": "%"},
      {"measurement": "toxicity of L-carvone relative to a-terpineol", "setting": "[4]; wild type strain", "value": "about 5 fold"},
      {"measurement": "toxicity against TyrR^neo30 strain compared with wild type", "setting": "[5]", "value": "does not affect the toxicity"},
      {"measurement": "% Mortality at LD50 of wild type Drosophila melanogaster strain: TyrR^neo30", "setting": "[5]; topical dose equal to wild type LD50, 24 h after treatment", "value": 38.7, "unit": "%"}
    ]},
    {"compound": "Cc1ccc(N(CC2=NCCN2)c2cccc(O)c2)cc1", "note": "[Phentolamine]", "values": [
      {"measurement": "Ki", "setting": "[1]", "value": "0.125 ± 0.02", "unit": "µM"}
    ]},
    {"compound": "NCCc1c[nH]c2ccc(O)cc12", "note": "[Serotonin (SE), Serotonin]", "values": [
      {"measurement": "Ki", "setting": "[1]", "value": "89.5 ± 9.01", "unit": "µM"}
    ]},
    {"compound": "NCCc1ccc(O)cc1", "note": "[Tyramine (TA), Tyramine]", "values": [
      {"measurement": "Ki", "setting": "[1]", "value": 1.27, "unit": "µM"},
      {"measurement": "affinity of TA relative to DL-octopamine for TyrR", "setting": "[1]; ratio of Ki values", "value": "about 22.58 fold"},
      {"measurement": "IC50", "setting": "[3]", "value": 5.8, "unit": "µM"},
      {"measurement": "decrease in the basal level of cAMP", "setting": "[3]; TA 10 μM, 300 μM IBMX, basal 0.601±0.080 pmol cAMP", "value": 18, "unit": "%"},
      {"measurement": "change in [Ca2+]i in response to TA", "setting": "[2]; 1 μM TA, clone#2 cells", "value": "rapid increase in [Ca^2+]i"},
      {"measurement": "duration of transient peak in [Ca2+]i level", "setting": "[2]; TA application", "value": "~20", "unit": "s"},
      {"measurement": "lowest concentration that can increase [Ca2+]i levels", "setting": "[2]; clone#2 cells", "value": 20, "unit": "nM"},
      {"measurement": "effect on cAMP levels in control cells", "setting": "[6]", "value": "significant effects on cAMP levels as compared to non-transfected cells are not produced"},
      {"measurement": "effect on [Ca2+]i in control cells", "setting": "[7]", "value": "does not increase the level of [Ca^2+]i"}
    ]},
    {"compound": "COC(=O)[C@@H]1[C@H]2C[C@H]3c4[nH]c5ccccc5c4CCN3C[C@@H]2CC[C@@H]1O", "note": "[Yohimbine]", "values": [
      {"measurement": "Ki", "setting": "[1]", "value": "0.071 ± 0.001", "unit": "µM"}
    ]},
    {"compound": "NCCc1ccc(O)cc1", "note": "[^3H-tyramine]", "values": [
      {"measurement": "Kd", "setting": "[8]", "value": 2.56, "unit": "nM"}
    ]},
    {"compound": "CC1=CCC(C(C)(C)O)CC1", "note": "(stereo not drawn) [a-terpineol, p-menth-1-en-8-ol]", "values": [
      {"measurement": "decrease in cAMP production", "setting": "[3]; 300 μM IBMX", "value": 22, "unit": "%"},
      {"measurement": "change in [Ca2+]i in response to plant essential oil", "setting": "[2]", "value": "remarkable increase in [Ca^2+]i"}
    ]},
    {"compound": "Cc1ccc(C(C)C)cc1", "note": "[p-cymene, 1-methyl-4-(1-methylethyl)benzene]", "values": [
      {"measurement": "decrease in cAMP production", "setting": "[3]; 300 μM IBMX", "value": 13, "unit": "%"},
      {"measurement": "change in [Ca2+]i in response to plant essential oil", "setting": "[2]", "value": "slight increase in [Ca^2+]i"},
      {"measurement": "Wild type-calculated LD50 values", "setting": "[4]", "value": 15.5, "unit": "μg/fly"},
      {"measurement": "% Mortality at LD50 of wild type Drosophila melanogaster strain: Wild type", "setting": "[4]", "value": 57.3, "unit": "%"},
      {"measurement": "% Mortality at LD50 of wild type Drosophila melanogaster strain: TyrR^neo30", "setting": "[5]; in vivo", "value": 56.0, "unit": "%"},
      {"measurement": "toxicity against TyrR^neo30 strain compared with wild type", "setting": "[5]", "value": "does not affect the toxicity"}
    ]}
  ]
}
